# Experimental data from ChEMBL document CHEMBL5365543, “Benzamidine Conjugation Converts Expelled Potential Active Agents into Antifungals against Drug-Resistant Fungi” (J Med Chem, 2023).
# Calls of active or inactive are those of the source. The calls are words filed in the database; no cut-off is given here.
# Key:
# Candida albicans [1] = test: microbe, parasite or virus in culture; type: functional; settings: DSY654, time 24 hrs
# Description: Antifungal activity against efflux pump-deficient Candida albicans DSY654 assessed as inhibition of fungal growth measured after 24 hrs by CLSI based microtiter plate analysis
# Candida albicans [2] = test: Drug accumulation in Candida albicans SC5314 measured per 10^8 cells incubated for 3 hrs by HPLC analysis; type: functional, organism-based
# Candida albicans [3] = test: Antifungal activity against wild-type Candida albicans SC5314 assessed as inhibition of fungal growth measured after 24 hrs by CLSI based microtiter plate analysis; type: functional; settings: for MIC80: Candida albicans
# [Candida] auris [4] = Antifungal activity against clinical isolate fluconazole-resistant Candida auris CBS12774 assessed as inhibition of fungal growth measured after 24 hrs by CLSI based microtiter plate analysis; type: functional; settings: Candidozyma auris
# Candida albicans [5] = test: Antifungal activity against clinical isolate fluconazole-resistant Candida albicans DSY296 harbouring TAC1 mutation overexpressing efflux pump CdrL and Cdr2 assessed as inhibition of fungal growth measured after 24 hrs by CLSI based microtiter plate analysis; type: functional
# Candida albicans [6] = test: Antifungal activity against clinical isolate fluconazole-resistant Candida albicans CA632 assessed as inhibition of fungal growth measured after 24 hrs by CLSI based microtiter plate analysis; type: functional
# Candida albicans [7] = test: Antifungal activity against clinical isolate Candida albicans YEM15 overexpressing efflux pump CdrL and Cdr2 assessed as inhibition of fungal growth measured after 24 hrs by CLSI based microtiter plate analysis; type: functional
# Candida albicans [8] = test: Antifungal activity against clinical isolate Candida albicans SCUPC2R14MPG2A harbouring UPC2 mutation overexpressing […] Erg11 assessed as inhibition of fungal growth measured after 24 hrs by CLSI based microtiter plate analysis; type: functional
# Candida tropicalis = test: Antifungal activity against clinical isolate fluconazole-resistant Candida tropicalis CT10 assessed as inhibition of fungal growth measured after 24 hrs by CLSI based microtiter plate analysis; type: functional
# Candida albicans [9] = test: Antifungal activity against clinical isolate fluconazole-resistant Candida albicans Gu5 harbouring TAC1 mutation overexpressing efflux pump CdrL and Cdr2 assessed as inhibition of fungal growth measured after 24 hrs by CLSI based microtiter plate analysis; type: functional
# [Candida] auris [10] = Antifungal activity against clinical isolate fluconazole-resistant Candida auris CBS12776 assessed as inhibition of fungal growth measured after 24 hrs by CLSI based microtiter plate analysis; type: functional; settings: Candidozyma auris
# Candida albicans [11] = test: Antifungal activity against clinical isolate Candida albicans SCMRRIR34MPG2A harbouring MRR1 mutation overexpressing efflux pump MdrL assessed as inhibition of fungal growth measured after 24 hrs by CLSI based microtiter plate analysis; type: functional
# Candida albicans [12] = test: Antifungal activity against clinical isolate fluconazole-resistant Candida albicans G5 harbouring MRR1 mutation overexpressing MdrL assessed as inhibition of fungal growth measured after 24 hrs by CLSI based microtiter plate analysis; type: functional
# Candida albicans [13] = test: Antifungal activity against clinical isolate Candida albicans YEM13 overexpressing efflux pump MdrL assessed as inhibition of fungal growth measured after 24 hrs by CLSI based microtiter plate analysis; type: functional
# Nakaseomyces glabratus = test: Antifungal activity against clinical isolate fluconazole-resistant Candida glabrata CG2 assessed as inhibition of fungal growth measured after 24 hrs by CLSI based microtiter plate analysis; type: functional
# Cryptococcus neoformans = test: Antifungal activity against clinical isolate fluconazole-resistant Cryptococcus neoformans H99 assessed as inhibition of fungal growth measured after 24 hrs by CLSI based microtiter plate analysis; type: functional
# [14] = Drug accumulation in wild-type Candida albicans SC5314 at 50 microg/ml incubated for 3 hrs by HPLC analysis; type: ADME; settings: dose 50 µg/ml
# [15] = Cytotoxicity against mouse L929 cells assessed as inhibition of cell growth measured after 4 hrs by MTT assay; type: toxicity, cell-based
# [16] = Cytotoxicity against human HBE cells assessed as inhibition of cell growth measured after 4 hrs by MTT assay; type: toxicity, cell-based
# [17] = Induction of hemolysis in mouse RBC cells at 2 to 32 microg/ml incubated for 60 mins by absorbance based analysis; type: toxicity, cell-based, Erythrocyte; settings: red blood cells (erythrocytes), at 2 to 32 µg/mL, dose 2-32 µg/ml, read-out: Activity
# Candida albicans [18] = test: Induction of drug resistance in wild-type Candida albicans SC5314 assessed as change in MIC at 0.5 times of MIC measured after 30 passages by broth microdilution method; type: functional
# [19] = Induction of DNA damage in human HBE cells assessed as increase in gammaH2AX level at 2 to 8 microg/ml by Western blotting analysis; type: toxicity, cell-based; settings: dose 2-8 µg/ml
SMILES,MIC80 (Candida albicans [1]) [µg/mL],"MIC80 (Candida albicans [3]; SC5314, read-out: MIC80) [µg/mL]",MIC80 ([Candida] auris [4]) [µg/mL],MIC80 (Candida albicans [5]) [µg/mL],MIC80 (Candida albicans [6]) [µg/mL],MIC80 (Candida albicans [7]) [µg/mL],MIC80 (Candida albicans [8]) [µg/mL],MIC80 (Candida tropicalis) [µg/mL],MIC80 (Candida albicans [9]) [µg/mL],MIC80 ([Candida] auris [10]) [µg/mL],MIC80 (Candida albicans [11]) [µg/mL],MIC80 (Candida albicans [12]) [µg/mL],MIC (Candida albicans [3]),"MIC80 (Candida albicans [3]; SC5314, 24 h, read-out: MIC80) [µg/mL]",MIC80 (Candida albicans [13]) [µg/mL],MIC80 (Nakaseomyces glabratus) [µg/mL],MIC80 (Cryptococcus neoformans) [µg/mL],Drug uptake [14],IC50 at 4 h [15] [µg/mL],IC50 at 4 h [16] [µg/mL],also measured
CCOC(=O)C1=C(COCCNCCCOc2ccc(C(=N)N)cc2)NC(C)=C(C(=O)OC)C1c1ccccc1Cl (centres undefined),,,8,8,4,4,4,4,4,8,8,4,inactive,4,4,8,8,Active,,,
C[C@H]1[C@H](C)CC[C@]2(C(=O)OCCCOc3ccc(C(=N)N)cc3)CC[C@]3(C)C(=CC[C@@H]4[C@@]5(C)CC[C@H](O)C(C)(C)[C@@H]5CC[C@]43C)[C@H]12,,,8,4,4,4,4,4,4,4,4,4,inactive,4,4,4,4,Active,,,Activity (Candida albicans [18]): Active
C[C@@]12CC[C@@H]3[C@](CC[C@H]4[C@@]3(C)CCC[C@@]4(C)C(=O)OCCCOc3ccc(C(=N)N)cc3)(CC1=O)C2,,,8,4,4,4,4,4,4,8,8,8,inactive,4,4,8,4,Active,,,Activity [19]: Non-Toxic
C=CCc1ccc(OCCCOc2ccc(C(=N)N)cc2)c(-c2ccc(O)c(CC=C)c2)c1,,,8,8,8,8,8,16,8,16,8,8,inactive,8,8,16,8,Active,,,
Cc1ccc(Sc2ccccc2N2CCN(CCCOc3ccc(C(=N)N)cc3)CC2)c(C)c1,,,8,4,4,4,4,4,4,8,4,8,inactive,4,4,8,4,Active,,,

# Continued, in another order:
MIC80 (Candida albicans [1]) [µg/mL],"MIC80 (Candida albicans [3]; SC5314, read-out: MIC80) [µg/mL]",SMILES,MIC80 ([Candida] auris [4]) [µg/mL],MIC80 (Candida albicans [5]) [µg/mL],MIC80 (Candida albicans [6]) [µg/mL],MIC80 (Candida albicans [7]) [µg/mL],MIC80 (Candida albicans [8]) [µg/mL],MIC80 (Candida tropicalis) [µg/mL],MIC80 (Candida albicans [9]) [µg/mL],MIC80 ([Candida] auris [10]) [µg/mL],MIC80 (Candida albicans [11]) [µg/mL],MIC80 (Candida albicans [12]) [µg/mL],MIC (Candida albicans [3]),"MIC80 (Candida albicans [3]; SC5314, 24 h, read-out: MIC80) [µg/mL]",MIC80 (Candida albicans [13]) [µg/mL],MIC80 (Nakaseomyces glabratus) [µg/mL],MIC80 (Cryptococcus neoformans) [µg/mL],Drug uptake [14],IC50 at 4 h [15] [µg/mL],IC50 at 4 h [16] [µg/mL],also measured
256,> 256,C=C1C[C@@]23CC[C@H]4[C@@](C)(CCC[C@@]4(C)C(=O)O)[C@@H]2CC[C@]1(O)C3 [STEVIOL],,,,,,,,,,,,,,,,,,,MIC (Candida albicans [1]): 256 µg/mL; Drug uptake (Candida albicans [2]): inactive
4,8,C=C1C[C@@]23CC[C@H]4[C@@](C)(CCC[C@@]4(C)C(=O)OCCCCC[n+]4c(C)cc(N)c5ccccc54)[C@@H]2CC[C@]1(O)C3.[I-],,,,,,,,,,,,,,,,,8.34,6.53,hemolysis at 1 h [17]: < 2%
8,16,C=C1C[C@@]23CC[C@H]4[C@@](C)(CCC[C@@]4(C)C(=O)OCCCn4c(CC)[n+](C)c5ccccc54)[C@@H]2CC[C@]1(O)C3.[I-],,,,,,,,,,,,,,,,,16.5,> 32,hemolysis at 1 h [17]: < 2%
4,8,C=C1C[C@@]23CC[C@H]4[C@@](C)(CCC[C@@]4(C)C(=O)OCCCc4c5[n+](cc6c(OC)c(OC)ccc46)CCc4cc6c(cc4-5)OCO6)[C@@H]2CC[C@]1(O)C3.[I-],,,,,,,,,,,,,,,,,1.32,4.79,hemolysis at 1 h [17]: < 2%
32,> 256,C=C1C[C@@]23CC[C@H]4[C@@](C)(CCC[C@@]4(C)C(=O)OCC[N+](C)(CC)CC)[C@@H]2CC[C@]1(O)C3.[I-],,,,,,,,,,,,,,,,,,,Drug uptake (Candida albicans [2]): inactive
